Assay results as given in patent US11534457B2, “Use of dextran sulfate” (priority 2017, dated 2022).

Test system: LPS system [PBMC and HUVEC+LPS (TLR4 ligand)]
Assay: BioMAP LPS system
Format: cell-based, Human
From the text: In this study LMW-DS was characterized by profiling in the BioMAP® Diversity PLUS panel. The BioMAP® panel consists of human primary cell-based systems designed to model different aspects of the human body in an in vitro format. The 12 systems in the BioMAP® Diversity PLUS panel (Table 32) allow test agent characterization in an unbiased way across a broad set of systems modeling various human disease states. The BioMA®P systems are constructed with one or more primary cell types from healthy human donors, with stimuli, such as cytokines or growth factors, added to capture relevant signaling networks that naturally occur in human tissue or pathological conditions. […]
Systems are derived from either single cell types or co-culture systems. […] Test agents prepared in either DMSO (small molecules; final concentration 0.1%) or PBS (biologics) are added at the indicated concentrations 1-hr before stimulation, and remain in culture for 24-hrs or as otherwise indicated (48-hrs, MyoF system; 72-hrs, BT system (soluble readouts); 168-hrs, BT system (secreted IgG)). […] Soluble factors from supernatants are quantified using either HTRF® detection, bead-based multiplex immunoassay or capture ELISA. Overt adverse effects of test agents on cell proliferation and viability (cytotoxicity) are detected by sulforhodamine B (SRB) staining, for adherent cells, and alamarBlue® reduction for cells in suspension. […]

“low molecular weight dextran sulfate [LMW-DS]” was tested, and the Decreased biomarker activity was “sTNFα” and the Increased biomarker activity was “IL-8”.
